# ChEMBL document CHEMBL4627327, “Antibacterial activity of singly and doubly modified salinomycin derivatives” (Bioorg Med Chem Lett, 2020)
# Calls of active or inactive are those of the source. The calls are words filed in the database; no cut-off is given here.
# Tests used:
# Staphylococcus aureus [1] = assay: Antibacterial activity against Staphylococcus aureus NCTC 4163 assessed as bacterial growth inhibition measured after 18 hrs by CLSI protocol based two-fold serial microdilution method; format: functional
# [2] = test system: Staphylococcus epidermidis; assay: Antibacterial activity against methicillin-resistant Staphylococcus epidermidis isolate 602 assessed as bacterial growth inhibition measured after 18 hrs by CLSI protocol based two-fold serial microdilution method; format: functional; settings: isolate 602, 18 h
# Staphylococcus aureus [3] = assay: Antibacterial activity against methicillin-resistant Staphylococcus aureus isolate 750 assessed as bacterial growth inhibition measured after 18 hrs by CLSI protocol based two-fold serial microdilution method; format: functional; settings: isolate 750, 18 h
# Enterococcus hirae = assay: Antibacterial activity against Enterococcus hirae ATCC 10541 assessed as bacterial growth inhibition measured after 18 hrs by CLSI protocol based two-fold serial microdilution method; format: functional
# Staphylococcus aureus [4] = assay: Antibacterial activity against methicillin-resistant Staphylococcus aureus isolate 584 assessed as bacterial growth inhibition measured after 18 hrs by CLSI protocol based two-fold serial microdilution method; format: functional; settings: isolate 584, 18 h
# [5] = test system: Staphylococcus epidermidis; assay: Antibacterial activity against methicillin-resistant Staphylococcus epidermidis isolate 654 assessed as bacterial growth inhibition measured after 18 hrs by CLSI protocol based two-fold serial microdilution method; format: functional; settings: isolate 654, 18 h
# [6] = Genotoxicity in rec negative Bacillus subtilis M45 assessed as diameter of inhibition zone at 256 ug measured after 24 hrs by rec-assay; format: toxicity; settings: in vivo
# Escherichia coli [7] = assay: Antibacterial activity against Escherichia coli ATCC 25922 assessed as bacterial growth inhibition measured after 18 hrs by CLSI protocol based two-fold serial microdilution method; format: functional, organism-based
# Staphylococcus aureus [8] = assay: Antibacterial activity against Staphylococcus aureus ATCC 29213 assessed as bacterial growth inhibition measured after 18 hrs by CLSI protocol based two-fold serial microdilution method; format: functional
# [9] = test system: Staphylococcus epidermidis; assay: Antibacterial activity against methicillin-resistant Staphylococcus epidermidis isolate 660 assessed as bacterial growth inhibition measured after 18 hrs by CLSI protocol based two-fold serial microdilution method; format: functional; settings: isolate 660, 18 h
# Micrococcus luteus = assay: Antibacterial activity against Micrococcus luteus ATCC 9341 assessed as bacterial growth inhibition measured after 18 hrs by CLSI protocol based two-fold serial microdilution method; format: functional
# Staphylococcus aureus [10] = assay: Antibacterial activity against methicillin-resistant Staphylococcus aureus isolate 621 assessed as bacterial growth inhibition measured after 18 hrs by CLSI protocol based two-fold serial microdilution method; format: functional; settings: isolate 621, 18 h
# [11] = test system: Staphylococcus epidermidis; assay: Inhibition of biofilm formation in Staphylococcus epidermidis ATCC 12228 at 1 to 8 ug/ml measured after 24 hrs by crystal violet staining based assay; format: functional, organism-based
# [12] = test system: Staphylococcus epidermidis; assay: Antibacterial activity against methicillin-resistant Staphylococcus epidermidis isolate 603 assessed as bacterial growth inhibition measured after 18 hrs by CLSI protocol based two-fold serial microdilution method; format: functional; settings: isolate 603, 18 h
# [13] = test system: Staphylococcus epidermidis; assay: Antibacterial activity against methicillin-resistant Staphylococcus epidermidis isolate 610 assessed as bacterial growth inhibition measured after 18 hrs by CLSI protocol based two-fold serial microdilution method; format: functional; settings: isolate 610, 18 h
# [14] = test system: Staphylococcus epidermidis; assay: Antibacterial activity against methicillin-resistant Staphylococcus epidermidis isolate 574 assessed as bacterial growth inhibition measured after 18 hrs by CLSI protocol based two-fold serial microdilution method; format: functional; settings: isolate 574, 18 h
# Staphylococcus aureus [15] = assay: Antibacterial activity against methicillin-resistant Staphylococcus aureus isolate 612 assessed as bacterial growth inhibition measured after 18 hrs by CLSI protocol based two-fold serial microdilution method; format: functional; settings: isolate 612, 18 h
# Staphylococcus aureus [16] = assay: Antibacterial activity against Staphylococcus aureus ATCC 25923 assessed as bacterial growth inhibition measured after 18 hrs by CLSI protocol based two-fold serial microdilution method; format: functional
# [17] = test system: Staphylococcus epidermidis; assay: Inhibition of biofilm formation in Staphylococcus epidermidis ATCC 35984 at 1 to 8 ug/ml measured after 24 hrs by crystal violet staining based assay; format: functional, organism-based
# Staphylococcus aureus [18] = assay: Antibacterial activity against methicillin-resistant Staphylococcus aureus isolate 770 assessed as bacterial growth inhibition measured after 18 hrs by CLSI protocol based two-fold serial microdilution method; format: functional; settings: isolate 770, 18 h
# [19] = Genotoxicity in rec-positive Bacillus subtilis H17 assessed as diameter of inhibition zone at 256 ug measured after 24 hrs by rec-assay; format: toxicity; settings: in vivo
# [20] = test system: Staphylococcus epidermidis; assay: Antibacterial activity against Staphylococcus epidermidis ATCC 12228 assessed as bacterial growth inhibition measured after 18 hrs by CLSI protocol based two-fold serial microdilution method; format: functional
# [21] = test system: Staphylococcus epidermidis; assay: Antibacterial activity against Staphylococcus epidermidis ATCC 35984 assessed as bacterial growth inhibition measured after 18 hrs by CLSI protocol based two-fold serial microdilution method; format: functional
# Staphylococcus aureus [22] = assay: Antibacterial activity against Staphylococcus aureus ATCC 6358 assessed as bacterial growth inhibition measured after 18 hrs by CLSI protocol based two-fold serial microdilution method; format: functional
# Pseudomonas aeruginosa [23] = assay: Antibacterial activity against Pseudomonas aeruginosa ATCC 27853 assessed as bacterial growth inhibition measured after 18 hrs by CLSI protocol based two-fold serial microdilution method; format: functional, organism-based
# Staphylococcus aureus [24] = assay: Antibacterial activity against methicillin-resistant Staphylococcus aureus isolate 583 assessed as bacterial growth inhibition measured after 18 hrs by CLSI protocol based two-fold serial microdilution method; format: functional; settings: isolate 583, 18 h
# Pseudomonas aeruginosa [25] = assay: Antibacterial activity against Pseudomonas aeruginosa ATCC 15442 assessed as bacterial growth inhibition measured after 18 hrs by CLSI protocol based two-fold serial microdilution method; format: functional, organism-based
# Escherichia coli [26] = assay: Antibacterial activity against Escherichia coli NCTC 8196 assessed as bacterial growth inhibition measured after 18 hrs by CLSI protocol based two-fold serial microdilution method; format: functional, organism-based
# [27] = test system: Staphylococcus epidermidis; assay: Antibacterial activity against methicillin-resistant Staphylococcus epidermidis isolate 609 assessed as bacterial growth inhibition measured after 18 hrs by CLSI protocol based two-fold serial microdilution method; format: functional; settings: isolate 609, 18 h
# Staphylococcus aureus [28] = assay: Antibacterial activity against methicillin-resistant Staphylococcus aureus isolate 620 assessed as bacterial growth inhibition measured after 18 hrs by CLSI protocol based two-fold serial microdilution method; format: functional; settings: isolate 620, 18 h
Structure (SMILES),MIC [2] [µM],MIC (Staphylococcus aureus [3]) [µM],MIC (Staphylococcus aureus [4]) [µM],MIC [5] [µM],diameter of the inhibition zone (DIZ) [6] [mm],Activity (Escherichia coli [7]),MIC [9] [µM],MIC (Staphylococcus aureus [10]) [µM],inhibition [11],MIC [12] [µM],MIC [13] [µM],MIC [14] [µM],MIC (Staphylococcus aureus [15]) [µM],inhibition [17],MIC (Staphylococcus aureus [18]) [µM],diameter of the inhibition zone (DIZ) [19] [mm],Activity (Pseudomonas aeruginosa [23]),MIC (Staphylococcus aureus [24]) [µM],Activity (Pseudomonas aeruginosa [25]),Activity (Escherichia coli [26]),further results
CC[C@@H](C(=O)[C@@H](C)[C@@H](O)[C@H](C)[C@@H]1O[C@@H]([C@@H](CC)C(=O)ONC(=O)c2ccccc2)CC[C@@H]1C)[C@H]1O[C@]2(C=CC(=O)[C@]3(CC[C@@](C)([C@H]4CC[C@](O)(CC)[C@H](C)O4)O3)O2)[C@H](C)C[C@@H]1C,4.61,18.4,36.9,73.7,23,inactive,73.7,4.61,Active,4.61,18.4,2.3,18.4,Active,73.7,20,inactive,36.9,inactive,inactive,Activity (Staphylococcus aureus [1]): Active; Activity (Enterococcus hirae): Active; Activity (Staphylococcus aureus [8]): Active; Activity (Micrococcus luteus): Active; Activity (Staphylococcus aureus [16]): Active; Activity [20]: Active; Activity [21]: Active; Activity (Staphylococcus aureus [22]): Active; MIC [27]: 9.22 µM; MIC (Staphylococcus aureus [28]): 18.4 µM
CC[C@@H](C(=O)[C@@H](C)[C@@H](O)[C@H](C)[C@@H]1O[C@@H]([C@@H](CC)C(=O)ONC(=O)c2ccccc2)CC[C@@H]1C)[C@H]1O[C@]2(C=C[C@@H](O)[C@]3(CC[C@@](C)([C@H]4CC[C@](O)(CC)[C@H](C)O4)O3)O2)[C@H](C)C[C@@H]1C,4.6,4.6,18.4,18.4,32,inactive,18.4,2.3,Active,4.6,4.6,2.3,4.6,Active,9.19,25,inactive,18.4,inactive,inactive,"MIC (Staphylococcus aureus [1]; NCTC 4163, 18 h): 1 to 16 µg/mL; MIC (Enterococcus hirae; ATCC 10541, 18 h): 1 to 16 µg/mL; MIC (Staphylococcus aureus [8]; ATCC 29213, 18 h): 1 to 16 µg/mL; MIC (Micrococcus luteus; ATCC 9341, 18 h): 1 to 16 µg/mL; MIC (Staphylococcus aureus [16]; ATCC 25923, 18 h): 1 to 16 µg/mL; MIC ([20]; ATCC 12228, 18 h): 1 to 16 µg/mL; MIC ([21]; ATCC 35984, 18 h): 1 to 16 µg/mL; MIC (Staphylococcus aureus [22]; ATCC 6358, 18 h): 1 to 16 µg/mL; MIC [27]: 4.6 µM; MIC (Staphylococcus aureus [28]): 4.6 µM"
